Results reported in patent publication US11161844B2, “Cyclic substituted imidazo[4,5-c]quinoline derivatives” (Pfizer Inc., priority 2017, dated 2021).

target: LRRK2, WT (GST-tagged truncated LRRK2) (Homo sapiens (Human), UniProt Q5S007); experiment: LRRK2 kinase assay (Lantha Screen), wild type; type: biochemical; settings: 100 nM LRRKtide, 1 mM ATP, 2 μg/mL enzyme; geometric mean of 2-4 determinations unless otherwise indicated
Procedure: LRRK2 kinase activity was measured using Lantha Screen technology from Invitrogen. GST-tagged truncated LRRK2 from Invitrogen (Cat #PV4874) was incubated with a fluorescein-labeled peptide substrate based upon ezrin/radixin/moesin (ERM), also known as LRRKtide (Invitrogen cat #PR8976A), in the presence of a dose response of compound. Upon completion, the assay was stopped and detected with a terbium labeled anti-phospho-ERM antibody (Invitrogen, cat #PR8975A). The assay was carried out under the following protocol: The compound dose response was prepared by diluting compound to a top concentration of 0.3 mM in 100% DMSO and serial diluted by half-log in DMSO to give an 11 point curve, 100× final assay concentration. Using Echo acoustic dispensing, 60 nL of compound was transferred to a low volume Corning 384-well assay plate. 3 μL of a working solution of substrate (200 nM LRRKtide, 2 mM ATP) prepared in assay buffer (50 mM HEPES, pH 7.5, 3 mM MgCl2, with 2 mM DTT and 0.01% Brij35 added fresh) was added to the 60 nL compound assay plate. The kinase reaction was started with 3 μL of a working solution of LRRK2 enzyme at a concentration of 4 μg/mL. The final reaction concentrations were 100 nM LRRKtide, 1 mM ATP, 2 μg/mL LRRK2 enzyme and a compound dose response with a top dose of 3 μM. The reaction was allowed to progress at room temperature for 30 minutes and then stopped with the addition of 6 μL of detection buffer (20 mM Tris pH 7.6, 0.01% NP-40, 6 mM EDTA with 2 nM terbium labeled anti-phospho-ERM). After an incubation of 1 hour at room temperature, the plate was read on an Envision with an excitation wavelength of 340 nm and a reading emission at both 520 nm and 495 nm. The ratio of the 520 nm and 495 nm emission was used to analyze the data. Inhibition of mutant G2019S LRRK2 (Invitrogen cat #PV4881) was measured in the exact same method. All final concentrations of substrate ATP and enzyme were the same.

Chain of LRRK2, WT (GST-tagged truncated LRRK2) (Q5S007 970-2527): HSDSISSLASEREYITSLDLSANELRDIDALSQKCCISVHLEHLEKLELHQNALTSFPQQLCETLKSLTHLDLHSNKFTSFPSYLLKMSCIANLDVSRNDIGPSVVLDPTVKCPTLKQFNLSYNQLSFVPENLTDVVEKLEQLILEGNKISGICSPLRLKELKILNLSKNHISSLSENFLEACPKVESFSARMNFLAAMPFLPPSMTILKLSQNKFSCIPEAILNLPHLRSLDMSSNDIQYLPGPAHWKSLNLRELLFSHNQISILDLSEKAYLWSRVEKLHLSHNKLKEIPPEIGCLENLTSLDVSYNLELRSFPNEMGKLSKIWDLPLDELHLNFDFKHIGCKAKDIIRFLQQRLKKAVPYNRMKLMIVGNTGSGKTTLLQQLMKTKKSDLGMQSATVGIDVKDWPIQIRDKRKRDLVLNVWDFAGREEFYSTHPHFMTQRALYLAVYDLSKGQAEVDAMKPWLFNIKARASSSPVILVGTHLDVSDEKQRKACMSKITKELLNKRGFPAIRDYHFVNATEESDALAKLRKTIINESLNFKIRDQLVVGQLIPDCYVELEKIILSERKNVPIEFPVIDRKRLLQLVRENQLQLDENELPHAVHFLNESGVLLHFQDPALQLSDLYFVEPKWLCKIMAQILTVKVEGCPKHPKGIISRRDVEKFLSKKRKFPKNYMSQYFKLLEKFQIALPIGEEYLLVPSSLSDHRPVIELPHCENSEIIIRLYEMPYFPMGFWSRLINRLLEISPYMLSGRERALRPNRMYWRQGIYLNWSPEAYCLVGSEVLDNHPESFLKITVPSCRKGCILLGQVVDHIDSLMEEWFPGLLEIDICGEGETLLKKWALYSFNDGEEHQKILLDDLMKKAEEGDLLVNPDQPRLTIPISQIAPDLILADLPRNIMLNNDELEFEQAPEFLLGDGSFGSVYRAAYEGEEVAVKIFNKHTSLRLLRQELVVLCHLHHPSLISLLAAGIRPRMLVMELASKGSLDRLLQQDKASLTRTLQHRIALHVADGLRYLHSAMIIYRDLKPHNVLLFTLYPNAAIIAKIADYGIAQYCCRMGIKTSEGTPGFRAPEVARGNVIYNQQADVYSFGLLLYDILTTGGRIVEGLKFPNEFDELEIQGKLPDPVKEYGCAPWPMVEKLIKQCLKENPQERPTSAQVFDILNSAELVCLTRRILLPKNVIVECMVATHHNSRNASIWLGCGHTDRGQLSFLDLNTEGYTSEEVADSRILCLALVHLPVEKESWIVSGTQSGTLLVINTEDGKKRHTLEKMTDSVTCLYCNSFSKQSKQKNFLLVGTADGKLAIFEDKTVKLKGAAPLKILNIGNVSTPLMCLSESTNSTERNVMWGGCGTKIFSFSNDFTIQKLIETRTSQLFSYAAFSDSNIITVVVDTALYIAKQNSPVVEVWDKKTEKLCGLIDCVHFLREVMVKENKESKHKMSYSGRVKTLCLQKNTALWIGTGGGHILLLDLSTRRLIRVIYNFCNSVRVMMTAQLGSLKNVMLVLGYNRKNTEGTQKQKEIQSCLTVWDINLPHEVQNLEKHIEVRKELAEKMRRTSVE

| SMILES | IC50 [nM] |
| --- | --- |
| N#Cc1ccc2ncc3nc([C@H]4C[C@H](F)C4)n(C4CCOCC4(F)F)c3c2c1 (stereo partly drawn) [Example 45, 1-(3,3-difluorotetrahydro-2H-pyran-4-yl)-2-(trans-3-fluorocyclobutyl)-1H-imidazo[4,5-c]quinoline-8-carbonitrile] | 2140 |
| CO[C@H]1C[C@H](c2nc3cnc4ccc(C#N)cc4c3n2C2CCOCC2(F)F)C1 (stereo partly drawn) [Example 50, 1-(3,3-difluorotetrahydro-2H-pyran-4-yl)-2-(trans-3-methoxycyclobutyl)-1H-imidazo[4,5-c]quinoline-8-carbonitrile] | > 3000 |
| CC1(C)C[C@H](n2c([C@H]3CC[C@H](F)C3)nc3cnc4ccc(C#N)cc4c32)CCO1 [Example 53, 1-[(4R)-2,2-dimethyltetrahydro-2H-pyran-4-yl]-2-[(1S,3S)-3-fluorocyclopentyl]-1H-imidazo[4,5-c]quinoline-8-carbonitrile] | 413 |
| CO[C@H]1C[C@H](c2nc3cnc4ccc(C#N)cc4c3n2C2CCOCC2(F)F)C1 (stereo partly drawn) [Example 51, 1-(3,3-difluorotetrahydro-2H-pyran-4-yl)-2-(trans-3-methoxycyclobutyl)-1H-imidazo[4,5-c]quinoline-8-carbonitrile] | 272 |
| C[C@@H]1C[C@H](n2c(C3CCC(F)C3)nc3cnc4ccc(F)cc4c32)CCO1 (stereo partly drawn) [Example 38, 8-fluoro-2-[trans-3-fluorocyclopentyl]-1-[(2R,4R)-2-methyltetrahydro-2H-pyran-4-yl]-1H-imidazo[4,5-c]quinoline] | 202 |
| C[C@@H]1C[C@H](n2c([C@H]3CCOC3)nc3cnc4ccc(C(F)F)cc4c32)CCO1 [Example 21, 8-(difluoromethyl)-1-((2R,4R)-2-methyltetrahydro-2H-pyran-4-yl)-2-((R)-tetrahydrofuran-3-yl)-1H-imidazo[4,5-c]quinoline] | 16.6 |

Other lines, results leading:

| IC50 [nM] | SMILES |
| --- | --- |
| 464 | CN1CC(n2c(C3CCC(F)C3)nc3cnc4ccc(C#N)cc4c32)C(F)(F)C1 (stereo not shown) [Example 61, 1-(4,4-difluoro-1-methylpyrrolidin-3-yl)-2-(3-fluorocyclopentyl)-1H-imidazo[4,5-c]quinoline-8-carbonitrile] |
| > 3000 | CC1(C)C[C@H](n2c([C@@H]3CC[C@H](F)C3)nc3cnc4ccc(C#N)cc4c32)CCO1 [Example 54, 1-[(4R)-2,2-dimethyltetrahydro-2H-pyran-4-yl]-2-[(1R,3S)-3-fluorocyclopentyl]-1H-imidazo[4,5-c]quinoline-8-carbonitrile] |
| 2300 | CN1CC(n2c(C3CCC(F)C3)nc3cnc4ccc(C#N)cc4c32)C(F)(F)C1 (stereo not shown) [Example 64, 1-(4,4-difluoro-1-methylpyrrolidin-3-yl)-2-(3-fluorocyclopentyl)-1H-imidazo[4,5-c]quinoline-8-carbonitrile] |
| > 3000 | CN1CC(n2c(C3CCC(F)C3)nc3cnc4ccc(C#N)cc4c32)C(F)(F)C1 (stereo not shown) [Example 62, 1-(4,4-difluoro-1-methylpyrrolidin-3-yl)-2-(3-fluorocyclopentyl)-1H-imidazo[4,5-c]quinoline-8-carbonitrile] |
| 2520 | CC1(C)C[C@H](n2c([C@@H]3CC[C@@H](F)C3)nc3cnc4ccc(C#N)cc4c32)CCO1 [Example 55, 1-[(4R)-2,2-dimethyltetrahydro-2H-pyran-4-yl]-2-[(1R,3R)-3-fluorocyclopentyl]-1H-imidazo[4,5-c]quinoline-8-carbonitrile] |
| > 3000 | CC1(C)C[C@H](n2c([C@H]3CC[C@@H](F)C3)nc3cnc4ccc(C#N)cc4c32)CCO1 [Example 56, 1-[(4R)-2,2-dimethyltetrahydro-2H-pyran-4-yl]-2-[(1S,3R)-3-fluorocyclopentyl]-1H-imidazo[4,5-c]quinoline-8-carbonitrile] |
| > 1840 | CN1CC(n2c(C3CCC(F)C3)nc3cnc4ccc(C#N)cc4c32)C(F)(F)C1 (stereo not shown) [Example 63, 1-(4,4-difluoro-1-methylpyrrolidin-3-yl)-2-(3-fluorocyclopentyl)-1H-imidazo[4,5-c]quinoline-8-carbonitrile] |
